Test results reported in BigSolDB 2.1.

O=C(O)CSc1ccc2ccccc2c1
solubility (mole fraction)
Conditions | 278.15 K | 283.15 K | 288.15 K | 293.15 K | 298.15 K | 303.15 K | 308.15 K | 313.15 K | 318.15 K | 323.15 K
in DMF | 0.00524 | 0.00586 | 0.0066 | 0.00738 | 0.00828 | 0.00917 | 0.0101 | 0.0112 | 0.0122 | 0.0135
in ethanol | 0.0014 | 0.0018 | 0.00234 | 0.00282 | 0.00336 | 0.00394 | 0.00456 | 0.0052 | 0.00584 | 0.00669
in isopropanol | 0.000227 | 0.0003 | 0.000383 | 0.000481 | 0.00058 | 0.000682 | 0.000801 | 0.000919 | 0.00105 | 0.0012
in methanol | 0.00053 | 0.000675 | 0.000828 | 0.00102 | 0.00119 | 0.0014 | 0.0016 | 0.0018 | 0.00204 | 0.00235
in water | 1.42e-06 | 1.95e-06 | 2.54e-06 | 3.16e-06 | 3.88e-06 | 4.53e-06 | 5.33e-06 | 6.1e-06 | 7e-06 | 8.05e-06
